Measured values from PubChem BioAssay (NCI).
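How tested: cells in 96-well plates exposed to compound for 48 hours at five concentrations. At the GI50, growth is halved. TGI: concentration producing complete growth inhibition.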

Assays:
Assay in all cases: DTP human tumour cell line panel, 48 h
[1] = tested on: 786-0 renal
[2] = tested on: A498 renal
[3] = tested on: A549 NSCLC
[4] = tested on: ACHN renal
[5] = tested on: BT-549 breast
[6] = tested on: CAKI-1 renal
[7] = tested on: CCRF-CEM leukemia
[8] = tested on: COLO 205 colon
[9] = tested on: DU-145 prostate
[10] = tested on: HCC-2998 colon
[11] = tested on: HCT-116 colon
[12] = tested on: HCT-15 colon
[13] = tested on: HL-60(TB) leukemia
[14] = tested on: HOP-62 NSCLC
[15] = tested on: HOP-92 NSCLC
[16] = tested on: HS 578T breast
[17] = tested on: HT29 colon
[18] = tested on: IGROV1 ovarian
[19] = tested on: K-562 leukemia
[20] = tested on: KM12 colon
[21] = tested on: LOX IMVI melanoma
[22] = tested on: M14 melanoma
[23] = tested on: MALME-3M melanoma
[24] = tested on: MCF7 breast
[25] = tested on: MDA-MB-231 breast
[26] = tested on: MDA-MB-435
[27] = tested on: MOLT-4 leukemia
[28] = tested on: NCI-H226 lung
[29] = tested on: NCI-H23 lung
[30] = tested on: NCI-H460 lung
[31] = tested on: NCI-H522 lung
[32] = tested on: NCI/ADR-RES ovarian
[33] = tested on: OVCAR-3 ovarian
[34] = tested on: OVCAR-4 ovarian
[35] = tested on: OVCAR-5 ovarian
[36] = tested on: OVCAR-8 ovarian
[37] = tested on: PC-3 prostate
[38] = tested on: RPMI-8226 leukemia
[39] = tested on: RXF 393 renal
[40] = tested on: SF-268 CNS
[41] = tested on: SF-295 CNS
[42] = tested on: SF-539 CNS
[43] = tested on: SK-MEL-2 melanoma
[44] = tested on: SK-MEL-28 melanoma
[45] = tested on: SK-MEL-5 melanoma
[46] = tested on: SK-OV-3 ovarian
[47] = tested on: SN12C renal
[48] = tested on: SNB-19 CNS
[49] = tested on: SNB-75 CNS
[50] = tested on: SR leukemia
[51] = tested on: SW-620 colon
[52] = tested on: T-47D breast
[53] = tested on: TK-10 renal
[54] = tested on: U251 CNS
[55] = tested on: UACC-257 melanoma
[56] = tested on: UACC-62 melanoma
[57] = tested on: UO-31 renal

How did the GI50 [1] turn out when CC(C)(C)c1cc(C[P+](c2ccccc2)(c2ccccc2)c2ccccc2)cc(C(C)(C)C)c1O was run?
Its GI50 is 1810 nM.

What about the TGI [1] of the same compound?
Its TGI is 9730 nM.

What about the GI50 [2] of the same compound?
The GI50 was 451 nM.

What about the TGI [2] of the same compound?
Its TGI is 3690 nM.

What about the GI50 [3] of the same compound?
The GI50 was 392 nM.

And the TGI [3]?
The TGI was 11000 nM.

And the GI50 [4]?
The GI50 was 2630 nM.

What about the TGI [4] of the same compound?
Its TGI is 10800 nM.

And the GI50 [5]?
The GI50 was 330 nM.

And the TGI [5]?
The TGI was 898 nM.

And the GI50 [6]?
The GI50 was 2640 nM.

And the TGI [6]?
The TGI was 8700 nM.

And the GI50 [7]?
Its GI50 is 545 nM.

And the TGI [7]?
Its TGI is 5330 nM.

And the GI50 [8]?
The GI50 was 199 nM.

And the TGI [8]?
The TGI was 521 nM.

What about the GI50 [9] of the same compound?
The GI50 was 593 nM.

And the TGI [9]?
Its TGI is 11800 nM.

And the GI50 [10]?
The GI50 was 491 nM.

And the TGI [10]?
The TGI was 10200 nM.

And the GI50 [11]?
Its GI50 is 275 nM.

What about the TGI [11] of the same compound?
The TGI was 10200 nM.

What about the GI50 [12] of the same compound?
Its GI50 is 2390 nM.

What about the TGI [12] of the same compound?
Its TGI is 11900 nM.

And the GI50 [13]?
The GI50 was 220 nM.

And the TGI [13]?
Its TGI is 682 nM.

And the GI50 [14]?
The GI50 was 660 nM.

What about the TGI [14] of the same compound?
The TGI was 3940 nM.

What about the GI50 [15] of the same compound?
Its GI50 is 155 nM.

What about the TGI [15] of the same compound?
Its TGI is 555 nM.

What about the GI50 [16] of the same compound?
Its GI50 is 510 nM.

What about the TGI [16] of the same compound?
Its TGI is 17100 nM.

What about the GI50 [17] of the same compound?
Its GI50 is 184 nM.

What about the TGI [17] of the same compound?
The TGI was 1650 nM.

And the GI50 [18]?
Its GI50 is 437 nM.

What about the TGI [18] of the same compound?
Its TGI is 7460 nM.

What about the GI50 [19] of the same compound?
The GI50 was 341 nM.

And the TGI [19]?
Its TGI is 4640 nM.

And the GI50 [20]?
The GI50 was 364 nM.

And the TGI [20]?
The TGI was 1510 nM.

What about the GI50 [21] of the same compound?
Its GI50 is 457 nM.

What about the TGI [21] of the same compound?
The TGI was 1890 nM.

What about the GI50 [22] of the same compound?
Its GI50 is 398 nM.

And the TGI [22]?
The TGI was 3530 nM.

And the GI50 [23]?
The GI50 was 291 nM.

And the TGI [23]?
The TGI was 947 nM.

What about the GI50 [24] of the same compound?
Its GI50 is 270 nM.

What about the TGI [24] of the same compound?
Its TGI is 4040 nM.

What about the GI50 [25] of the same compound?
The GI50 was 473 nM.

What about the TGI [25] of the same compound?
The TGI was 2840 nM.

What about the GI50 [26] of the same compound?
The GI50 was 289 nM.

What about the TGI [26] of the same compound?
Its TGI is 1200 nM.

What about the GI50 [27] of the same compound?
The GI50 was 1410 nM.

And the TGI [27]?
The TGI was 5190 nM.

What about the GI50 [28] of the same compound?
The GI50 was 1450 nM.

What about the TGI [28] of the same compound?
Its TGI is 18300 nM.

What about the GI50 [29] of the same compound?
The GI50 was 365 nM.

And the TGI [29]?
Its TGI is 8210 nM.

And the GI50 [30]?
The GI50 was 413 nM.

What about the TGI [30] of the same compound?
Its TGI is 2590 nM.

What about the GI50 [31] of the same compound?
The GI50 was 330 nM.

And the TGI [31]?
The TGI was 1910 nM.

And the GI50 [32]?
The GI50 was 9120 nM.

What about the TGI [32] of the same compound?
The TGI was 33800 nM.

What about the GI50 [33] of the same compound?
The GI50 was 359 nM.

And the TGI [33]?
The TGI was 10200 nM.

What about the GI50 [34] of the same compound?
Its GI50 is 337 nM.

What about the TGI [34] of the same compound?
The TGI was 9160 nM.

What about the GI50 [35] of the same compound?
The GI50 was 2500 nM.

And the TGI [35]?
The TGI was 14300 nM.

And the GI50 [36]?
The GI50 was 386 nM.

And the TGI [36]?
Its TGI is 5560 nM.

What about the GI50 [37] of the same compound?
The GI50 was 278 nM.

What about the TGI [37] of the same compound?
The TGI was 1910 nM.

And the GI50 [38]?
The GI50 was 178 nM.

What about the TGI [38] of the same compound?
Its TGI is 627 nM.

What about the GI50 [39] of the same compound?
The GI50 was 1000 nM.

What about the TGI [39] of the same compound?
The TGI was 4670 nM.

What about the GI50 [40] of the same compound?
The GI50 was 429 nM.

And the TGI [40]?
Its TGI is 15000 nM.

What about the GI50 [41] of the same compound?
Its GI50 is 547 nM.

What about the TGI [41] of the same compound?
The TGI was 6790 nM.

And the GI50 [42]?
The GI50 was 854 nM.

What about the TGI [42] of the same compound?
The TGI was 7830 nM.

What about the GI50 [43] of the same compound?
The GI50 was 257 nM.

And the TGI [43]?
The TGI was 585 nM.

And the GI50 [44]?
The GI50 was 637 nM.

What about the TGI [44] of the same compound?
The TGI was 8210 nM.

And the GI50 [45]?
The GI50 was 244 nM.

And the TGI [45]?
The TGI was 716 nM.

And the GI50 [46]?
The GI50 was 1440 nM.

What about the TGI [46] of the same compound?
The TGI was 6700 nM.

What about the GI50 [47] of the same compound?
Its GI50 is 404 nM.

What about the TGI [47] of the same compound?
Its TGI is 2310 nM.

What about the GI50 [48] of the same compound?
Its GI50 is 354 nM.

What about the TGI [48] of the same compound?
Its TGI is 13800 nM.

And the GI50 [49]?
Its GI50 is 369 nM.

And the TGI [49]?
Its TGI is 6180 nM.

What about the GI50 [50] of the same compound?
Its GI50 is 403 nM.

And the TGI [50]?
The TGI was 2500 nM.

And the GI50 [51]?
Its GI50 is 528 nM.

What about the TGI [51] of the same compound?
Its TGI is 12000 nM.

And the GI50 [52]?
Its GI50 is 200 nM.

And the TGI [52]?
The TGI was 1010 nM.

And the GI50 [53]?
The GI50 was 486 nM.

What about the TGI [53] of the same compound?
The TGI was 3250 nM.

And the GI50 [54]?
Its GI50 is 268 nM.

What about the TGI [54] of the same compound?
Its TGI is 3760 nM.

What about the GI50 [55] of the same compound?
The GI50 was 227 nM.

What about the TGI [55] of the same compound?
Its TGI is 684 nM.

And the GI50 [56]?
Its GI50 is 365 nM.

And the TGI [56]?
Its TGI is 1660 nM.

And the GI50 [57]?
The GI50 was 2280 nM.

What about the TGI [57] of the same compound?
Its TGI is 7140 nM.
